Test results taken from patent US9980943B2, “Methods of treating muscular dystrophy” (BOARD OF REGENTS OF THE NEVADA SYSTEM OF HIGHER EDUCATION, …, priority 2013, dated 2018).
Like-named read-outs stand apart in the source and are kept apart here.

Key:
[1] = system: α7 integrin (LacZ reporter in α7LacZ+/− myoblasts); experiment: qHTS of the LOPAC library and MLSMR (online screen, α7LacZ+/− myoblasts); conditions: for activation at 0.307 µM / activation at 1.53 µM / activation at 7.66 µM / activation at 38.3 µM / Emax / EC50: Mus musculus, Myoblast; for activation at 0.307 µM: read-out: Activity at 0.307 uM [%] **; for activation at 1.53 µM: read-out: Activity at 1.530 uM [%] **; for activation at 7.66 µM: read-out: Activity at 7.660 uM [%] **; for activation at 38.3 µM: read-out: Activity at 38.30uM [%] **; for EC50: read-out: Fit LogAC50 (converted)
[2] = system: α7 integrin (LacZ reporter in α7βgal+/− myoblasts); experiment: Myoblast α7+/LacZ integrin FDG assay (Burkin assay in myoblasts, 96-well); format: cell-based, mouse; conditions: α7+/LacZ myoblasts, 96-well
[3] = system: α7 integrin (LacZ reporter in α7+/LacZ myotubes); experiment: Myotube α7 integrin FDG assay (Burkin assay in myotubes, 96-well); format: cell-based, mouse; conditions: myotubes
[4] = system: β-galactosidase in CMV-LacZ C2C12 myotubes; experiment: CMV-LacZ secondary screen in C2C12 myotubes (β-Gal stabilizing assay); format: cell-based, mouse; conditions: for CMV-LACZ in Myotubes (β-galactosidase activity relative to DMSO): CMV-LacZ C2C12 myotubes, 96-well format; for CMV-LACZ in Myotubes, signal relative to DMSO: C2C12 CMV-LacZ myotubes, fold relative to DMSO
Summary of the method: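 Stable CMV-LacZ C2C12 clone; six-point curve 0.5–40 μM; duplicates.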

[5] = 48 h, read-out: Fit Infinite Activity [%]

Row | EC50 [1] [nM] | SMILES | activation at 0.307 µM ([1]; 48 h) [%] | activation at 1.53 µM ([1]; 48 h) [%] | activation at 7.66 µM ([1]; 48 h) [%] | activation at 38.3 µM ([1]; 48 h) [%] | Emax [1, 5] [%] | CMV-LACZ in Myotubes (β-galactosidase activity relative to DMSO) ([4]; 5 uM) | CMV-LACZ in Myotubes (β-galactosidase activity relative to DMSO) ([4]; 10 uM) | CMV-LACZ in Myotubes (β-galactosidase activity relative to DMSO) ([4]; 20 uM) | CMV-LACZ in Myotubes (β-galactosidase activity relative to DMSO) ([4]; 40 uM) | Burkin Assay in Myoblasts, value relative to DMSO ([2]; 0.5 uM) | Burkin Assay in Myoblasts, value relative to DMSO ([2]; 1 uM) | Burkin Assay in Myoblasts, value relative to DMSO ([2]; 5 uM) | Burkin Assay in Myoblasts, value relative to DMSO ([2]; 10 uM) | Burkin Assay in Myoblasts, value relative to DMSO ([2]; 20 uM) | Burkin Assay in Myoblasts, value relative to DMSO ([2]; 40 uM) | Burkin Assay in Myotubes (signal relative to DMSO) ([3]; 0.5 uM) | Burkin Assay in Myotubes (signal relative to DMSO) ([3]; 1 uM) | Burkin Assay in Myotubes (signal relative to DMSO) ([3]; 5 uM) | Burkin Assay in Myotubes (signal relative to DMSO) ([3]; 10 uM) | further results
1 | 2820 | Cc1c(C(=O)O)cccc1-n1c(C)cc(/C=N/Nc2ccc([N+](=O)[O-])cn2)c1C [Compound 9] | -24.5 | 6.29 | 68.1 | 88.7 | 92.2 | – | – | – | – | – | – | – | – | – | – | – | – | – | – | Score [1]: 85; Emax ([1]; read-out: Max Response [%]): 88.7%
2 | 3160 | Cc1ccc(NP(=O)(Nc2ccc(C)cc2)Nc2ccc(C)cc2)cc1 [Compound 10] | 0 | 11.4 | 94.1 | 102 | 102 | – | – | – | – | – | – | – | – | – | – | – | – | – | – | –
3 | 2820 | COC(=O)C1=C(C)N=C(C)/C(=C(/O)OC)C1c1ccccc1OCc1c(C)no[n+]1[O-] (stereo not shown) [Compound 12] | 12.3 | 36.5 | 84.6 | 100 | 102 | – | – | – | – | – | – | – | – | – | – | – | – | – | – | –
4 | – | O=C(Nc1ccc(S(=O)(=O)Nc2nccs2)cc1)c1ccccc1OC(F)F [MLS002164687-01] | – | – | – | – | – | 0.7625 | 0.922 | 0.968 | 1.113 | – | – | – | – | – | – | – | – | – | – | fold induction at 0.5 µM ([2]; Mus musculus, Myoblast, 48 h, 0.5 uM, read-out: Burkin Assay in Myoblasts, value relative to DMSO): 0.775; fold induction at 1 µM ([2]; Mus musculus, Myoblast, 48 h, 1 uM, read-out: Burkin Assay in Myoblasts, value relative to DMSO): 0.819; fold induction at 5 µM ([2]; Mus musculus, Myoblast, 48 h, 5 uM, read-out: Burkin Assay in Myoblasts, value relative to DMSO): 0.695; fold induction at 10 µM ([2]; Mus musculus, Myoblast, 48 h, 10 uM, read-out: Burkin Assay in Myoblasts, value relative to DMSO): 0.849; fold induction at 20 µM ([2]; Mus musculus, Myoblast, 48 h, 20 uM, read-out: Burkin Assay in Myoblasts, value relative to DMSO): 0.838; fold induction at 40 µM ([2]; Mus musculus, Myoblast, 48 h, 40 uM, read-out: Burkin Assay in Myoblasts, value relative to DMSO): 0.819; fold induction at 0.5 µM ([3]; Mus musculus, Myotube, 0.5 uM, read-out: Burkin Assay in Myotubes (signal relative to DMSO)): 0.853; fold induction at 1 µM ([3]; Mus musculus, Myotube, 1 uM, read-out: Burkin Assay in Myotubes (signal relative to DMSO)): 1; fold induction at 5 µM ([3]; Mus musculus, Myotube, 5 uM, read-out: Burkin Assay in Myotubes (signal relative to DMSO)): 1.23; fold induction at 10 µM ([3]; Mus musculus, Myotube, 10 uM, read-out: Burkin Assay in Myotubes (signal relative to DMSO)): 1.37; fold induction at 20 µM ([3]; Mus musculus, Myotube, 20 uM, read-out: Burkin Assay in Myotubes (signal relative to DMSO)): 1.02; fold induction at 40 µM ([3]; Mus musculus, Myotube, 40 uM, read-out: Burkin Assay in Myotubes (signal relative to DMSO)): 1.06
5 | – | CSc1ncccc1C(=O)OCC(=O)c1cc(C)n(C)c1C [MLS002245351-01] | – | – | – | – | – | 0.8306 | 1.001 | 1.009 | 0.9307 | 1.082 | 1.037 | 1.034 | 0.9704 | 0.9001 | 0.8657 | 1.047 | 0.9463 | 1.107 | 1.042 | Burkin Assay in Myotubes (signal relative to DMSO) ([3]; 20 uM): 1.061; Burkin Assay in Myotubes (signal relative to DMSO) ([3]; 40 uM): 1.031
6 | – | N#Cc1ccccc1S(=O)(=O)N1CCN(C(=O)C2CCCCC2)CC1 [MLS002251986-01] | – | – | – | – | – | – | – | – | – | – | – | – | – | – | – | – | – | – | – | Burkin Assay in Myoblasts, signal relative to DMSO ([2]; 0.5 uM): 1.046; Burkin Assay in Myoblasts, signal relative to DMSO ([2]; 1 uM): 0.9231; Burkin Assay in Myoblasts, signal relative to DMSO ([2]; 5 uM): 0.9512; Burkin Assay in Myoblasts, signal relative to DMSO ([2]; 10 uM): 0.8667; Burkin Assay in Myoblasts, signal relative to DMSO ([2]; 20 uM): 0.9793; Burkin Assay in Myoblasts, signal relative to DMSO ([2]; 40 uM): 0.9184; Burkin Assay in Myotubes, α7 integrin LacZ reporter signal relative to DMSO ([3]; 0.5 uM): 1.121; Burkin Assay in Myotubes, α7 integrin LacZ reporter signal relative to DMSO ([3]; 1 uM): 0.9515; Burkin Assay in Myotubes, α7 integrin LacZ reporter signal relative to DMSO ([3]; 5 uM): 1.073; Burkin Assay in Myotubes, α7 integrin LacZ reporter signal relative to DMSO ([3]; 10 uM): 1.088; Burkin Assay in Myotubes, α7 integrin LacZ reporter signal relative to DMSO ([3]; 20 uM): 0.9882; Burkin Assay in Myotubes, α7 integrin LacZ reporter signal relative to DMSO ([3]; 40 uM): 0.9112; CMV-LACZ in Myotubes, signal relative to DMSO ([4]; 5 uM): 0.9831; CMV-LACZ in Myotubes, signal relative to DMSO ([4]; 10 uM): 0.9609; CMV-LACZ in Myotubes, signal relative to DMSO ([4]; 20 uM): 0.8238; CMV-LACZ in Myotubes, signal relative to DMSO ([4]; 40 uM): 0.9776
7 | – | CCc1c(C2(O)CCCCC2)[nH]c2ncccc12 [MLS002402866-01] | – | – | – | – | – | – | – | – | – | 1.037 | 1.1052 | 0.9113 | 0.9376 | 0.8943 | 0.7689 | 1.09 | 1.258 | 1.181 | 1 | Burkin Assay in Myotubes (signal relative to DMSO) ([3]; 20 uM): 1.075; Burkin Assay in Myotubes (signal relative to DMSO) ([3]; 40 uM): 0.9237; CMV-LACZ in Myotubes, signal relative to DMSO ([4]; 5 uM): 0.8739; CMV-LACZ in Myotubes, signal relative to DMSO ([4]; 10 uM): 0.7966; CMV-LACZ in Myotubes, signal relative to DMSO ([4]; 20 uM): 0.832; CMV-LACZ in Myotubes, signal relative to DMSO ([4]; 40 uM): 0.7307
8 | – | C[C@H]1CNC(=O)c2c(C(=O)Nc3ccc(CNC(=O)OC(C)(C)C)cc3)ncn21 [MLS003126425-01] | – | – | – | – | – | 1.354 | 0.8902 | 0.743 | 0.7123 | 1.146 | 1.1398 | 1.282 | 1.254 | 1.13 | 0.4401 | 1.104 | 1.203 | 1.422 | 1.6782 | Burkin Assay in Myotubes (signal relative to DMSO) ([3]; 20 uM): 0.7372; Burkin Assay in Myotubes (signal relative to DMSO) ([3]; 40 uM): 0.5208

Row | SMILES | EC50 [1] [nM] | activation at 0.307 µM ([1]; 48 h) [%] | activation at 1.53 µM ([1]; 48 h) [%] | activation at 7.66 µM ([1]; 48 h) [%] | activation at 38.3 µM ([1]; 48 h) [%] | Emax [1, 5] [%] | CMV-LACZ in Myotubes (β-galactosidase activity relative to DMSO) ([4]; 5 uM) | CMV-LACZ in Myotubes (β-galactosidase activity relative to DMSO) ([4]; 10 uM) | CMV-LACZ in Myotubes (β-galactosidase activity relative to DMSO) ([4]; 20 uM) | CMV-LACZ in Myotubes (β-galactosidase activity relative to DMSO) ([4]; 40 uM) | Burkin Assay in Myoblasts, value relative to DMSO ([2]; 0.5 uM) | Burkin Assay in Myoblasts, value relative to DMSO ([2]; 1 uM) | Burkin Assay in Myoblasts, value relative to DMSO ([2]; 5 uM) | Burkin Assay in Myoblasts, value relative to DMSO ([2]; 10 uM) | Burkin Assay in Myoblasts, value relative to DMSO ([2]; 20 uM) | Burkin Assay in Myoblasts, value relative to DMSO ([2]; 40 uM) | Burkin Assay in Myotubes (signal relative to DMSO) ([3]; 0.5 uM) | Burkin Assay in Myotubes (signal relative to DMSO) ([3]; 1 uM) | Burkin Assay in Myotubes (signal relative to DMSO) ([3]; 5 uM) | Burkin Assay in Myotubes (signal relative to DMSO) ([3]; 10 uM) | further results
9 | Cc1cc(OCC(=O)NC(C)C)ccc1Cl [Compound 11] | 3980 | 0 | 7.6 | 83.9 | 102 | 101 | – | – | – | – | – | – | – | – | – | – | – | – | – | – | –
